Patent US4197407A, “Prostenoic acids and esters” (American Cyanamid Company, priority 1977, dated 1980)

Key:
[1] = test system: mean arterial blood pressure; assay: Hypotensive activity in anesthetized rats; format: in vivo, Male Wistar strain rats; details: intravenous infusion over one minute
Experimental: This procedure is a modification of the technique described by Pike, et al., Prostaglandins, Nobel Symposium 2, Stockholm, June, 1966, pg. 165.
Male Wistar strain rats (Royal Hart Farms) averaging approximately 250 g in weight are fastened to rat boards in a supine position by means of canvas vests and limb ties. The animals are anesthetized with a 900 mg/kg intraperitoneal dose of urethane. The left carotid artery is cannulated with polyethylene 50 tubing to measure arterial blood pressure and the left external jugular vein is cannulated with polyethylene 50 tubing for drug infusion. The animals are allowed to equilibrate for 15-30 minutes. The test compound is infused in 0.5 ml of saline, over a one minute period, at the indicated dose level, using a Harvard model 940 infusion pump and a 6 cc syringe at speed 5. Each drug dose is flushed with 0.4 ml of saline. The mean arterial blood pressure is measured before and after drug administration using a Statham model P23Db pressure transducer and a Brush model 260 recorder. The percent depression in mean arterial blood pressure and the duration of at least a 10% depression induced by representative compounds of this invention are recorded in Table C.

[2] = test system: adenosine diphosphate induced platelet aggregation; assay: Inhibition of platelet aggregation in vitro, adenosine diphosphate induced; format: cell-based, Human; design: key: (-): Inhibition; (+): No inhibition
From the text: (§1) It is well known that platelet aggregation inhibitors may be useful as anti-thrombotic drugs. Inhibition of platelet aggregation can be conveniently measured in vitro by monitoring changes in optical density and/or light transmission in platelet rich plasma upon addition of suitable aggregating agents such as adenosine diphosphate, epinephrine, thrombin or collagen. Alternatively, platelet aggregation can be measured in vitro using platelet rich plasma obtained at various time intervales from animals given inhibitors by an oral or parenteral route.
(§2) Human […] is incubated with modified Tyrode's solution in a proportion of 40-50% human […]. The test compounds are added at varying concentrations and after 5 minutes incubation, an aggregating agent such as adenosine diphosphate or collagen is added. The change in optical density (light transmission) is monitored by eye and inhibition is recorded as a (-) or lack of inhibition is recorded as a (+). Test compounds are considered active if they inhibit adenosine diphosphate or collagen induced aggregation at a concentration of 25 mcg/ml or less within 5-10 minutes.

[3] = test system: collagen induced platelet aggregation; assay: Inhibition of platelet aggregation in vitro, collagen induced; format: cell-based, Human; design: key: (-): Inhibition; (+): No inhibition
From the text: as §1, §2

[4] = test system: bronchospasms elicited by acetylcholine; assay: Bronchodilator activity (Konzett procedure) against acetylcholine; format: in vivo, guinea pigs; details: Cavia porcellus; three logarithmic cumulative intravenous doses; spasmogen acetylcholine i.v.
Experimental: (§3) Bronchodilator activity is determined in guinea pigs against bronchospasms elicited by intravenous injections of 5-hydroxytryptamine, histamine or acetylcholine by the Konzett procedure. [See J. Lulling, P. Lievens, F. El Sayed and J. Prignot, Arzeneimittel-Forschung, 18, 995 (1968).] In Table D, bronchodilator activity for representative compounds of this invention against one or more of the three spasmogenic agents is expressed as an ED50 determined from the results obtained with three logarithmic cumulative intravenous doses.

[5] = test system: respiratory depression produced by arachidonate; assay: Inhibition of respiratory depression produced by arachidonate in mice, in vivo; design: species or system Swiss, male, albino mice; details: 2 hours before 50 mg/kg i.v. sodium arachidonate
Experimental: Swiss, male, albino mice, weighing about 20 g, are placed in control and drug groups, each with 4-6 mice and fasted. The drug mice are dosed with 50, 25, 10, or 1 mg/kg of a test compound suspended in volumes of 0.5, 0.25, or 0.10 ml of 2% starch solution. Control animals receive starch solution alone. After 2 hours all the mice are challenged with an intravenous dose of 50 mg/kg of sodium arachidonate in a volume of 0.2 ml, by tail vein. The onset of effect and duration of respiratory depression and recovery or death is quantitated. The percent inhibition of respiratory depression is computed from the mean of the drug group and the mean of the control group. Compounds giving 30% or more inhibition at 25 mg/kg or less are considered active.

[6] = test system: bronchospasms elicited by 5-hydroxytryptamine; assay: Bronchodilator activity (Konzett procedure) against 5-hydroxytryptamine; format: in vivo, guinea pigs; details: Cavia porcellus; three logarithmic cumulative intravenous doses; spasmogen 5-hydroxytryptamine i.v.
Experimental: as §3

[7] = test system: bronchospasms elicited by histamine; assay: Bronchodilator activity (Konzett procedure) against histamine; format: in vivo, guinea pigs; details: Cavia porcellus; three logarithmic cumulative intravenous doses; spasmogen histamine i.v.
Experimental: as §3

CCCCC1CCCC1(O)/C=C/C1C(O)CC(=O)C1C/C=C\CCCC(=O)O [nat-15S,16R(and ent-15R,16S) and nat-15R,16S-(and ent-15S,16R)-11α,15-Dihydroxy-9-oxo-15,16-trimethylene-13-trans-5-cis-prostadienoic Acid]
Duration in Minutes of at Least 10% Depression ([1]; dose 1.7 mg/kg): > 10 min | Percent Depression of Mean Arterial Blood Pressure ([1]; dose 1.7 mg/kg): -47% | Inhibition of Platelet Aggregation - In Vitro, Adenosine Diphosphate ([2]; drug concentration 25 μg/ml): (+) | Inhibition of Platelet Aggregation - In Vitro, Adenosine Diphosphate ([2]; drug concentration 250 μg/ml): (-) | Inhibition of Platelet Aggregation - In Vitro, Collagen ([3]; drug concentration 250 μg/ml): (+)

O=C(O)CCC/C=C\C[C@H]1C(=O)C[C@@H](O)[C@@H]1/C=C/C1(O)CCCCC1 (relative stereo) [nat(and ent)-11α,15-Dihydroxy-9-oxo-15,16-tetramethylene-17,18,19,20-tetranor-5-cis,13-trans-prostadienoic Acid]
Duration in Minutes of at Least 10% Depression ([1]; dose 2.2 mg/kg): 23 min | Percent Depression of Mean Arterial Blood Pressure ([1]; dose 2.2 mg/kg): -31% | Inhibition of Platelet Aggregation - In Vitro, Adenosine Diphosphate ([2]; drug concentration 0.25 μg/ml): (+) | Inhibition of Platelet Aggregation - In Vitro, Adenosine Diphosphate ([2]; drug concentration 2.5 μg/ml): (-) | Inhibition of Platelet Aggregation - In Vitro, Adenosine Diphosphate ([2]; drug concentration 25 μg/ml): (-) | Inhibition of Platelet Aggregation - In Vitro, Adenosine Diphosphate ([2]; drug concentration 250 μg/ml): (-) | Inhibition of Platelet Aggregation - In Vitro, Collagen ([3]; drug concentration 0.25 μg/ml): (+) | Inhibition of Platelet Aggregation - In Vitro, Collagen ([3]; drug concentration 2.5 μg/ml): (-) | Inhibition of Platelet Aggregation - In Vitro, Collagen ([3]; drug concentration 25 μg/ml): (-) | Inhibition of Platelet Aggregation - In Vitro, Collagen ([3]; drug concentration 250 μg/ml): (-) | ED50 [4]: 0.115 µg/kg | Inhibition of Respiratory Depression - In Vivo, Percent Inhibition ([5]; 10 mg/kg): 6% | Inhibition of Respiratory Depression - In Vivo, Percent Inhibition ([5]; 25 mg/kg): 14%

O=C(O)CCCCCC[C@H]1C(=O)CC[C@@H]1/C=C/C1=CCCCC1 (relative stereo) [nat(and ent)-9-oxo-15,16-Tetramethylene-17,18,19,20-tetranor-15,13-trans-prostadienoic Acid]
Inhibition of Platelet Aggregation - In Vitro, Adenosine Diphosphate ([2]; drug concentration 25 μg/ml): (-) | Inhibition of Platelet Aggregation - In Vitro, Adenosine Diphosphate ([2]; drug concentration 250 μg/ml): (-) | Inhibition of Platelet Aggregation - In Vitro, Collagen ([3]; drug concentration 25 μg/ml): (-) | Inhibition of Platelet Aggregation - In Vitro, Collagen ([3]; drug concentration 250 μg/ml): (-) | Inhibition of Respiratory Depression - In Vivo, Percent Inhibition ([5]; 25 mg/kg): 28%

O=C(O)CCCCCC[C@H]1C(=O)C[C@@H](O)[C@@H]1/C=C/C1(O)CCCCC1 (relative stereo) [nat(and ent)-11α,15-Dihydroxy-9-oxo-15,16-tetramethylene-17,18,19,20-tetranor-13-trans-prostenoic Acid]
Duration in Minutes of at Least 10% Depression ([1]; dose 2.1 mg/kg): 16 min | Percent Depression of Mean Arterial Blood Pressure ([1]; dose 2.1 mg/kg): -39% | Inhibition of Platelet Aggregation - In Vitro, Adenosine Diphosphate ([2]; drug concentration 0.25 μg/ml): (+) | Inhibition of Platelet Aggregation - In Vitro, Adenosine Diphosphate ([2]; drug concentration 2.5 μg/ml): (-) | Inhibition of Platelet Aggregation - In Vitro, Adenosine Diphosphate ([2]; drug concentration 25 μg/ml): (-) | Inhibition of Platelet Aggregation - In Vitro, Adenosine Diphosphate ([2]; drug concentration 250 μg/ml): (-) | Inhibition of Platelet Aggregation - In Vitro, Collagen ([3]; drug concentration 0.25 μg/ml): (+) | Inhibition of Platelet Aggregation - In Vitro, Collagen ([3]; drug concentration 2.5 μg/ml): (-) | Inhibition of Platelet Aggregation - In Vitro, Collagen ([3]; drug concentration 25 μg/ml): (-) | Inhibition of Platelet Aggregation - In Vitro, Collagen ([3]; drug concentration 250 μg/ml): (-)

CCCCC1CCCC1(O)/C=C/C1CCC(=O)C1CCCCCCC(=O)O [nat-15S,16R(and ent-15R,16S) and nat-15R,16S(and ent-15S,16R)-15-Hydroxy-9-oxo-15,16-trimethylene-13-trans-prostenoic Acid]
Duration in Minutes of at Least 10% Depression ([1]; dose 2.0 mg/kg): 4 min | Percent Depression of Mean Arterial Blood Pressure ([1]; dose 2.0 mg/kg): -38% | ED50 [6]: 0.32 µg/kg

O=C(O)CCC/C=C\C[C@H]1C(=O)C=C[C@@H]1/C=C/C1(O)CCCCC1 (relative stereo) [nat(and ent)-15-Hydroxy-9-oxo-15,16-tetramethylene-17,18,19,20-tetranor-13-trans,5-cis,10-prostatrienoic acid]
ED50 [7]: 0.632 µg/kg | Inhibition of Platelet Aggregation - In Vitro, Adenosine Diphosphate ([2]; drug concentration 25 μg/ml): (+) | Inhibition of Platelet Aggregation - In Vitro, Adenosine Diphosphate ([2]; drug concentration 250 μg/ml): (-) | ED50 [6]: > 3.2 µg/kg | Inhibition of Platelet Aggregation - In Vitro, Collagen ([3]; drug concentration 25 μg/ml): (+) | Inhibition of Platelet Aggregation - In Vitro, Collagen ([3]; drug concentration 250 μg/ml): (-) | ED50 [4]: > 3.2 µg/kg

O=C(O)CCCCCC[C@H]1C(=O)CC[C@@H]1/C=C/C1(O)CCCCC1 (relative stereo) [nat(and ent)-15-Hydroxy-9-oxo-15,16-tetramethylene-17,18,19,20-tetranor-13-trans-prostenoic Acid]
Duration in Minutes of at Least 10% Depression ([1]; dose 1.8 mg/kg): 4 min | Percent Depression of Mean Arterial Blood Pressure ([1]; dose 1.8 mg/kg): -9% | Inhibition of Platelet Aggregation - In Vitro, Adenosine Diphosphate ([2]; drug concentration 0.25 μg/ml): (+) | Inhibition of Platelet Aggregation - In Vitro, Adenosine Diphosphate ([2]; drug concentration 2.5 μg/ml): (+) | Inhibition of Platelet Aggregation - In Vitro, Adenosine Diphosphate ([2]; drug concentration 25 μg/ml): (-) | Inhibition of Platelet Aggregation - In Vitro, Adenosine Diphosphate ([2]; drug concentration 250 μg/ml): (-) | Inhibition of Platelet Aggregation - In Vitro, Collagen ([3]; drug concentration 0.25 μg/ml): (+) | Inhibition of Platelet Aggregation - In Vitro, Collagen ([3]; drug concentration 2.5 μg/ml): (+) | Inhibition of Platelet Aggregation - In Vitro, Collagen ([3]; drug concentration 25 μg/ml): (-) | Inhibition of Platelet Aggregation - In Vitro, Collagen ([3]; drug concentration 250 μg/ml): (-) | Inhibition of Respiratory Depression - In Vivo, Percent Inhibition ([5]; 1 mg/kg): 33%

CCCCC1CCCC1(O)/C=C/C1CCC(=O)C1CCCCCCC(=O)OCC [Ethyl nat-15S,16R(and ent-15R,16S)-15-hydroxy-9-oxo-15,16-trimethylene-13-trans-prostenoate and Ethyl nat-15R,16S(and ent-15S,16R)-15-hydroxy-9-oxo-15,16-trimethylene-13-trans-prostenoate]
Duration in Minutes of at Least 10% Depression ([1]; dose 1.9 mg/kg): 7 min | Percent Depression of Mean Arterial Blood Pressure ([1]; dose 1.9 mg/kg): -18%

CCCC[C@@H]1CCC[C@]1(O)/C=C/[C@H]1CCC(=O)[C@@H]1CCCCCCC(=O)OCC (relative stereo) [Ethyl nat-15R,16R(and ent-15S,16S)-15-hydroxy-9-oxo-15,16-trimethylene-13-trans-prostenoate]
Duration in Minutes of at Least 10% Depression ([1]; dose 4.0 mg/kg): 4 min | Percent Depression of Mean Arterial Blood Pressure ([1]; dose 4.0 mg/kg): -16%

CCCC[C@H]1CCC[C@@]1(O)/C=C/[C@H]1CCC(=O)[C@@H]1CCCCCCC(=O)O (relative stereo) [nat-15S,16S(and ent-15R,16R)-15-Hydroxy-9-oxo-15,16-trimethylene-13-trans-prosenoic Acid]
ED50 [6]: 0.112 µg/kg | ED50 [4]: 0.413 µg/kg

CCCC[C@H]1CCC[C@@]1(O)/C=C/[C@H]1CCC(=O)[C@@H]1CCCCCCC(=O)OCC (relative stereo) [Ethyl nat-15S,16S(and ent-15R,16R)-15-hydroxy-9-oxo-15,16-trimethylene-13-trans-prostenoate]
Duration in Minutes of at Least 10% Depression ([1]; dose 1.6 mg/kg): 5 min | Percent Depression of Mean Arterial Blood Pressure ([1]; dose 1.6 mg/kg): -43%
